Assay results reported in EP0270692A1, “ANTIARRHYTHMIC AGENT” (KYOWA HAKKO KOGYO CO., LTD., priority 1986, dated 1988).
Counter-ions that a name gives are not always drawn. Like-named read-outs stand apart in the source and are kept apart here.

Legend:
[1] = Test for acute toxicity (MLD; LD50); settings: mouse, in vivo
Protocol: (§1) Groups of 5 male dd-strain mice weighing 20 ±1 g were used. The test compounds were administered either orally (0.3 mg/kg) or intraperitoneally (0.1 mg/kg).
(§2) The MLD (minimum lethal dose) was determined by observing the mortality for 7 days after the administration.

[2] = tested on: male dd-strain mice; assay: Test for acute toxicity (MLD; LD50); settings: mouse, in vivo
Protocol: as §1, §2

[3] = tested on: chloroform-induced ventricular arrhythmias; assay: Mouse chloroform-induced ventricular arrhythmias test; type: in vivo, DD-strain mice; settings: for Anti-arrhythmic Activity: 100 mg/kg orally, effective when two or more of three examples kept 720 or less heart beat/min for 30 seconds
Protocol: Antiarrhythmic activity was examined according to mouse chloroform-induced ventricular arrhythmias test.
DD-strain mice weighing 18 -22 g were abstinent from food and water for 4-5 hours and antiarrhythmic activity was examined according to the Block's method [Life Science 28, 2623 (1981)]. Drugs tested were orally administered (100 mg/kg) and the mice were exposed to chloroform. After stop of respiration, electrocardiogram was measured according to standard limb leading method. The case where 720 or less heart beat/min was maintained for 30 seconds was regarded as effective.
The test compound was judged as being effective when two or more examples were effective among three examples.

[4] = tested on: pupil size; assay: Mydriasis activity test (anticholine activity); type: in vivo, Male dd-strain mice; settings: oral; dose required to double the pupil size 30 minutes after administration
Text: (§3) In Table 2, Test Nos. 1 and 4 are tests on antiarrhythmic activity and Test No. 3, on anticholine activity and Test No. 5, on side effect. What is meant by the small ratio of Test No. 1 to that of Test No. 3 and the small ratio of Test No. 4 to that of Test No. 5 is that the compound has high therapeutic ratio (wide safety margin).

[5] = tested on: left atrium; assay: Prolongation of effective refractory period in excised left atrium; parameters: species or system Male Hartley-strain guinea pigs; settings: Cavia porcellus; guinea pig left atrium in Krebs-Henseleit solution, 31 ± 1°C; read-out: The concentration required to prolong effective refractory period by 30%
Text: as §3

[6] = tested on: left atrium; assay: Reduction of amplitude of myocardial contractile force in excised left atrium; parameters: species or system Male Hartley-strain guinea pigs
Text: In Table 2, Test Nos. 1 and 4 are tests on antiarrhythmic activity and Test No. 3, on anticholine activity and Test No. 5, on side effect.

SMILES	LD50 at 72 h ([1]; iv, read-out: Acute toxicity test LD50 iv) [mg/kg]	LD50 at 72 h ([1]; po, read-out: Acute toxicity test LD50 po) [mg/kg]	Acute Toxicity MLD i.p. ([2]; ip)	Acute Toxicity MLD p.o. ([2]; po)	Anti-arrhythmic Activity [3]	ED50 ([3]; mouse, oral, read-out: Chloroform-induced ventricular antiarrhythmic activity test ED50) [mg/kg]	Mydriasis activity test ED100 [4] [mg/kg]	EC30 [5] [µg/mL]	The concentration required to reduce the amplitude of myocardial contractile force by 30% ([6]; guinea pig left atrium in Krebs-Henseleit solution, 31 ± 1°C) [µg/mL]	5/4 (ratio) ([6]; ratio of Test No. 5 (contractile force) to Test No. 4 (refractory period))
CCN(CC)CCNC1c2cc(OC)ccc2OCc2ncccc21 (centres unmarked) [1.5 Fumarate of Compound 1]	93	> 1000	more than 100 mg/kg	more than 300 mg/kg	Effective	80	235	4.9	110	22.4
CCN(CC)CCNC1c2cc(C)ccc2OCc2ncccc21 (centres unmarked) [5-[2-diethylamino)-ethyl]amino-7-methyl-5,11-dihydro[1]benz-oxepino[3,4-b]pyridine, reference compound]	–	–	–	–	^*3 Ineffective	–	–	–	–	–
